Test results as given in patent publication US20080280954A1, “Method of Improving Wakefulness” (VANDA PHARMACEUTICALS, INC, priority 2005, published 2008).
Like-named read-outs stand apart in the source and are kept apart here.

Legend:
[1] = test system: sleep-wakefulness cycle in rats
Method: In a first set of experiments, the oral (p.o.) and subcutaneous (s.c.) actions of Compound A were evaluated in the sleep-wakefulness cycle in rats. For this purpose the salt forms multifumarate (mfu) or fumarate (fu) were used.
The experiments were carried out in nonanesthetized unrestrained male Wistar rats prepared with chronically implanted electrodes for the recording of the electrocorticogram (ECoG). The animals were caged in a room, maintained at a constant temperature of 22° C. and artificially lighted for 12 hours daily. Before beginning of the experiment, the animals were given a 1 to 3 day period of acclimatization in the recording cages and had complete freedom of movement even when the recording cables were attached. The ECOG recordings were made continuously during 22 to 23-hours period, 15 min after drug administration. Each animal served as its own control. In one experiment, recordings of EcoG were also obtained after administration of distilled water (vehicle used with Compound A) for comparison with no administration, or administration of Compound A.

[2] = test system: sleep-wakefulness cycle in rats with lesions of the nucleus basalis of Meynert (NBM) and locus coeruleus (LC)
Method: In a second set of experiment, oral actions of Compound A were evaluated in the sleep-wakefulness cycle in rats with lesions of the nucleus basalis of Meynert (NBM) and locus coeruleus (LC). For this purpose the salt form multifumarate (mfu) was used.
Male rats were used. They were anesthetized with pentobarbital (50 mg/kg i.p.) and positioned in a stereotaxic apparatus with the upper incisor bar set 5 mm (locus coeruleus, LC) or 3.3 mm (Nucleus basalis of Meynert, NBM) below the interaural line. The lesions were carried out with a radio frequency lesion generator at 60° C. in 10 sec. A corresponding group of sham lesioned rats was carried out. The animals were individually kept in single cage during 6 months after the lesions. Five months after lesion, cortical electrodes were implanted. The animals were caged in a room, maintained at a constant temperature of 22° C. and artificially lighted for 12 hours daily. Before beginning of the experiment, the animals were given a 1 day period of acclimatization in the recording cages. These were tall plastic cylinders within the animals had complete freedom of movement even when the recording cables were attached. ECOG recordings were made continuously during 22-hours period/day, 15 min after the installation of the animal or 15 min after drug administration.
Four groups of animals were studied (A1-4), and statistical analysis (T-test, p<0.05) was performed between the different groups.
A1: 5 lesioned animals, which had received 35 days after lesion 3 mg/kg p.o. of
Compound A during 5 days. Implementation of electrodes 5 months later.
Recording of ECOG on the 22d and 23d days after implantation.
A2: Same as A1 but treated with vehicle instead of Compound A.
A3: S Same as A1 but with Sham rats instead of lesioned animals.
A4: Same as A3 but treated with vehicle instead of Compound A.

[3] = 10 mg/kg p.o., 7-11 hours after administration
[4] = 30 mg/kg p.o., first 4 hours of recording
[5] = 3 mg/kg p.o. (mfu) during 5 days, 35 days after lesion, all recording periods

For `Cc1nccn1Cc1ccccn1` [Compound A, [2-(2-methylimidazol-1-yl)methyl]pyridine], the REM sleep duration ([1]; 1 mg/kg s.c., first 2 hours) was “reduced”, the wakefulness ([1]; 1 mg/kg s.c., first 4 hours) was “enhanced” and the “slow-wave sleep (SWS) sleep onset” value ([1]; 3 mg/kg p.o.) was “significantly delayed”. For the same molecule, the active waking ([1]; 3 mg/kg p.o., between 0-4 and 7-11 hours) was “tended to be increased”, the REM sleep duration ([1]; 3 mg/kg p.o., first 4 hours) was “reduced” and the classical sleep ([1]; 3 mg/kg p.o., first 4 hours) was “reduced”. For the same molecule, the wakefulness ([1]; 3 mg/kg p.o., first 4 hours) was “increase”, the active waking ([1]; 3 mg/kg p.o., last recording interval 18.75-23 hours) was “significantly increased” and the REM sleep onset ([1]; 10 mg/kg p.o.) was “strongly delayed”. For the same molecule, the SWS onset ([1]; 10 mg/kg p.o.) was “tended to also delay”, the active waking ([1]; 10 mg/kg p.o., 0-4 hours after administration) was “significantly increased” and the REM sleep [1, 3] was “tended to be increased”. The SWS duration [1, 3] was “decreased”, the waking time [1, 3] was “significantly increased” and the classical sleep ([1]; 10 mg/kg p.o., during 3 hours) was “decreased”. The waking time ([1]; 10 mg/kg p.o., first 6 hours) was “tended to increase”, the REM sleep duration ([1]; 10 mg/kg p.o., for several hours) was “significantly reduced” and the REM sleep onset ([1]; 30 mg/kg p.o.) was “strongly delayed”. The SWS onset ([1]; 30 mg/kg p.o.) was “strongly delayed”, the “time the decrease of REM sleep lasted” value ([1]; 30 mg/kg p.o.) was “about 11 hours” and the “time the increase of wakefulness lasted” value ([1]; 30 mg/kg p.o.) was “about 9 hours”. The REM sleep duration ([1]; 30 mg/kg p.o., 4-7 hours after administration) was “decreased”, the REM sleep duration [1, 4] was “decreased” and the SWS duration [1, 4] was “decreased”. The waking time [1, 4] was “increased”, the “changes in the rat nycthemeral rhythm” value ([1]; 3, 10 and 30 mg/kg (mfu) p.o., 3 and 10 mg/kg (fu) p.o., 1, 3 and 10 mg/kg (mfu) s.c., dose dependent) was “significant changes” and the “effects on sleep-wakefulness cycle compared with oral administration” value ([1]; 3 and 10 mg/kg s.c.) was “nearly the same effects as by oral administration”. The “effect availability (s.c. versus p.o. action)” value ([1]; action quite similar by s.c. and p.o. administration) was “good”, the “effects on the sleep wakefulness cycle compared with the mfu form” value ([1]; fu salt form, 3 and 10 mg/kg p.o.) was “same effects” and the “lesion-induced decrease of classical sleep” value [2, 5] was “partly prevented”. For the same molecule, the “lesion-induced increase of wakefulness” value [2, 5] was “partly prevented”, the “alterations of the sleep-wakefulness cycle due to the lesions” value ([2]; 3 mg/kg p.o. (mfu) during 5 days, 35 days after lesion, recording more than 5 months later, all recording periods) was “important reduction” and the “nycthemeral cycle abnormalities induced by simultaneous LC+NBM lesions” value ([2]; several months after last administration) was “reduce”.
